For series [1], the system named is LXR. The series can be described thus: Corepressor (NCOR2, SMRT2) binding to LXR, CRT, statements across isoforms. It counts as biochemical. The conditions noted are these: monoplex CRT, absence of coactivator.
In series [2] the target is T1, LXRα (Homo sapiens, UniProt Q13133).
T1 sequence (Q13133 209-447 limits assumed): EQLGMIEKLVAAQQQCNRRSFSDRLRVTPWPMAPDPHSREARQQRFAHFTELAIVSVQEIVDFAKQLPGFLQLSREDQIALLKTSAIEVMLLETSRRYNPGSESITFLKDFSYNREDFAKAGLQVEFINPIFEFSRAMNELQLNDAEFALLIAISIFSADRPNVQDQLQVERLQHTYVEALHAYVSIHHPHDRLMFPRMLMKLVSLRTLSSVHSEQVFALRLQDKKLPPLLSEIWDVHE
The experiment in a line: SMRT2 corepressor binding to LXRα, CRT. It counts as biochemical. Further details: The CRT selectivity assay incorporates GST-tagged LXR-LBD; purchased Thermo Fisher Scientific PV4657. The conditions noted are these: ligand 1 µM, interpolated from concentration-response, normalized; heat map Figure 9A; read-out: SMRT2α, relative % activity at 1 μM.

Series [3] has as its target T2, LXRβ (Homo sapiens, UniProt P55055).
T2 sequence (P55055 222-460 limits assumed): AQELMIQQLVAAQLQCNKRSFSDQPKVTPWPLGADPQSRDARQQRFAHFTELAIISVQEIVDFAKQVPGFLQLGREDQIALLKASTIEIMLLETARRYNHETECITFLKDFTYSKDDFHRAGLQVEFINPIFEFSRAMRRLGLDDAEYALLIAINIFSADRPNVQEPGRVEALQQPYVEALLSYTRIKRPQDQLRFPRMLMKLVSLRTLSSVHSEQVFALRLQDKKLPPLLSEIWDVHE
The series can be described thus: SRC-1 coactivator recruitment to LXRβ, coregulator TR-FRET (CRT). Further details: The CRT selectivity assay incorporates GST-tagged LXR-LBD; purchased Thermo Fisher Scientific PV4660. In kind it is biochemical.

Series [4] addresses T1, LXRα. The experiment in a line: NCOR2 corepressor binding to LXRα, CRT. In kind it is biochemical. More on the design: The CRT selectivity assay incorporates GST-tagged LXR-LBD; purchased Thermo Fisher Scientific PV4657. As to conditions: for activity at 1 µM: ligand 1 µM, interpolated from concentration-response, normalized, heat map Figure 9A, read-out: NCOR2α, relative % activity at 1 μM.

Series [5] deals with T2, LXRβ. The series can be described thus: SMRT2 corepressor binding to LXRβ, CRT. Further details: The CRT selectivity assay incorporates GST-tagged LXR-LBD; purchased Thermo Fisher Scientific PV4660. In kind it is biochemical. The conditions noted are these: read-out: SMRT2β, relative % activity at 1 μM.
The subject of a further series is human volunteers. The conditions noted are these: 2016, cited from earlier work.
Series [6] addresses T2, LXRβ. The series can be described thus: NCOR2 corepressor binding to LXRβ, CRT. In kind it is biochemical. More on the design: The CRT selectivity assay incorporates GST-tagged LXR-LBD; purchased Thermo Fisher Scientific PV4660. As to conditions: for activity at 1 µM: read-out: NCOR2β, relative % activity at 1 μM.
Another series has as its system ABCA1. The series can be described thus: ABCA1-luc reporter assay in CCF-STTG1 astrocytoma cells. In kind it is cell-based, human. An excerpt: Astrocytoma CCF-STTG1 cells, stably transfected with an ABCA1-promoter linked to a luciferase response element, provide a model for ABCA1 induction in astrocytes ([Ben Aissa et al., 2021]). […] Apparent inverse agonist activity in cell-based assays can result from ‘true’ inverse agonist recruitment of corepressors or from antagonist activity towards endogenous sterol LXR agonists. Although we use serum-stripped media, antagonism of endogenous LXR agonists cannot be ruled out.
Low passage CCF-STTG1 cells (20,000 cells/well) were seeded in 96-well plates in media containing charcoal-stripped FBS and incubated at 37 °C and 5% CO2 for 24 hr prior to a 24 hr treatment. All compounds were dissolved in DMSO, and final DMSO concentrations never exceeded 1%. After a 24 hr incubation period, add a volume of ONE-GLOEX Reagent that is equal to the volume of culture medium in each well and incubate for 3–5 min on the shaker. The luminescent activity of compounds ([…], 10-fold dilution) was examined using the ONE-GLOEX assay (Promega). […] The assays were performed in duplicates for each concentration, and the EC50 values were determined from non-linear regression analysis of the dose-response curve generated in GraphPad Prism 9.

The target in series [7] is T1, LXRα. The series can be described thus: Multiplex precision CRT (pCRT), SRC1 and NCOR2, LXRα. It counts as biochemical. More on the design: The CRT selectivity assay incorporates GST-tagged LXR-LBD; purchased Thermo Fisher Scientific PV4657. As to conditions: presence of SRC1, saturating ligand.
Series [8] deals with sterol response element (SRE). The experiment in a line: SRE-luc reporter assay in HepG2 cells. It counts as cell-based, human. The conditions noted are these: concentrations ≤1 µM. Put shortly:
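HepG2 cells stably carrying an SRE (LDLR) promoter–NlucP reporter, grown in medium with charcoal-stripped FBS. Treated with compounds for 24 hr at 37 °C, then lysed and nanoluciferase luminescence read.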
(A reporter such as luciferase makes a cellular process visible.)

Series [9] relates to LXR. Further details: method as in Belorusova et al., 2019. As to conditions: ref Belorusova et al., 2019; cited from earlier work.
Series [10] addresses T2, LXRβ. The series can be described thus: Multiplex precision CRT (pCRT), SRC1 and NCOR2, LXRβ. In kind it is biochemical. Further details: The CRT selectivity assay incorporates GST-tagged LXR-LBD; purchased Thermo Fisher Scientific PV4660. The conditions noted are these: presence of SRC1.
Series [11] concerns the target T1, LXRα. Further details: The CRT selectivity assay incorporates GST-tagged LXR-LBD; purchased Thermo Fisher Scientific PV4657; method as in Albers et al., 2006. The conditions noted are these: >1 µM; ref Albers et al., 2006; cited from earlier work.
The next series has as its system cynomolgus monkeys. More on the design: method as in Groot et al., 2005. As to conditions: ref Groot et al., 2005; cited from earlier work.
A further series deals with T3, PXR (Homo sapiens, UniProt O75469).
T3 sequence (O75469 146-433 limits assumed): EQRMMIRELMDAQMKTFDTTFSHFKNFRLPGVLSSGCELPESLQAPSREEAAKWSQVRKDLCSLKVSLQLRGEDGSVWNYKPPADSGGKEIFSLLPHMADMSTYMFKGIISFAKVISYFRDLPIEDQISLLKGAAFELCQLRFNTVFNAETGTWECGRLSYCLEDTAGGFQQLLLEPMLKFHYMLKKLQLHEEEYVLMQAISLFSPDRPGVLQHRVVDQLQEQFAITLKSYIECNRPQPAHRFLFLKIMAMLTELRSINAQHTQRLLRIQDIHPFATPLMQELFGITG
The experiment in a line: Coactivator SRC1-4 recruitment Lanthascreen PXR. The conditions noted are these: benchmark SR12813. It counts as biochemical. For orientation: In TR-FRET formats the signal depends on donor and acceptor labels being close together.

For the next series, the system named is C57Bl/6 mice. Further details: method as in Miao et al., 2004. The conditions noted are these: ref Miao et al., 2004, cited from earlier work.
Series [12] deals with LXR. The series can be described thus: Multiplex precision CRT (pCRT), SRC1 and NCOR2, LXR isoform not specified. It counts as biochemical. As to conditions: pCRT versus monoplex CRT.
Another series deals with Hamsters. Further details: method as in Groot et al., 2005. As to conditions: ref Groot et al., 2005; cited from earlier work.
The mark [13] stands for this setting: ligand 1 µM, interpolated from concentration-response, normalized, heat map Figure 9A.

As a reminder, the EC50 is the concentration needed to bring the measured effect to its halfway point.

Entries after “also recorded” stand apart in the source; their conditions may differ.

As to `CC(C)(O)c1cn(-c2ccc(-c3cc(F)c(CO)c(S(C)(=O)=O)c3)cc2F)c(C(C)(C)c2c(Cl)cccc2Cl)n1` [XL041], the “Corepressor (NCOR2, SMRT2) displacement or stabilization, across LXR isoforms” value in the series with LXR [1] is “stabilized LXR complexes with corepressor bound; also recorded: strongly stabilized the corepressor-bound conformation”. Besides, the activity at 1 µM on LXRα [2] came out at 152%; on LXRα [4], 142%; on LXRβ [5] (setting [13]), 153%; at LXRβ [6] (setting [13]), 129%. The EC50 on LXRβ [3] (biotin-SRC-1 CRT, read-out: Potency (EC50) for SRC-1 recruitment to LXRβ) was 10 nM. Further, in the series on human volunteers (human, 2.5 mg/kg p.o., Day 14, ref Kirchgessner et al., read-out: Cmax, drug concentration in plasma), the Cmax is about 30 nM. In addition, the T½ result in the series with human volunteers (human, ref Kirchgessner et al.) is reported as “≈ 13 hr”. Also, in the series on human volunteers (multi-day dosing, healthy and statin-treated subjects, ref Kirchgessner et al.), the “Adverse effects in clinical trials” value is “elevated plasma and liver lipids and neutropenia”. Moreover, the “ABCA1 expression in trial subjects” value in the series on human volunteers (ref Katz et al., 2009, Kirchgessner et al.) is “increased ABCA1 expression in trial subjects”. Further, the “Selectivity for ABCA1 induction versus SRE activation (potency correlation outliers)” value in the series with ABCA1 (CCF ABCA1-luc versus HepG2 SRE-luc) is given as “selectivity for ABCA1 induction”. Also, the “ABCA1 induction response/phenotype in CCF cells” value in the series with ABCA1 (normalized to T0) is given as “partial agonist response”. At LXRα [7], the “Maximal signal for NCOR2-bound LXRα in pCRT” value is “significantly higher than zero”. In addition, in series [8], the “Efficacy of SRE activation at concentrations ≤1 µM” value is reported as 20–25 % of T0. For the same compound, in the series with LXR [9], the “Ligand behaviour in HDX-MS analysis (H12 conformation)” value is listed as “act as an antagonist”. Besides, at LXRβ [10], the “NCOR2 displacement from LXRβ in pCRT” value is “fully displaced”.
For the compound `O=C(O)Cc1cccc(OCCCN(Cc2cccc(C(F)(F)F)c2Cl)CC(c2ccccc2)c2ccccc2)c1` [GW3965], the “Recruitment of NCOR1 to LXRα” value on LXRα [11] is “Weak recruitment of NCOR1 to LXRα”. For the same compound, the activity at 1 µM is 92.4% on LXRα [2], 99.1% on LXRα [4], 92.5% at LXRβ [5] and 92.3% on LXRβ [6]. For the same compound, the “SRC1β, relative % activity at 1 μM” value on LXRβ [3] is 95.64%. The “Plasma LDL, HDL and TG” value in the series on cynomolgus monkeys is “increased LDL and HDL at 7 days treatment only, with no effect on TG”. In addition, the “PXR agonism/binding in CRT” value at PXR is “no binding to PXR”. Further, the “Effect on NCOR2 binding to LXRα” value at LXRα [4] (monoplex CRT, absence of SRC1) is reported as “displacement of NCOR2 from both LXR isoforms”. Further, in the series with C57Bl/6 mice (3 days treatment, GW3965 even at 100 mg/kg/day), the “Liver weight and TGs” value is listed as “no effect on these liver markers”. Moreover, the “SREBP1c and FAS expression in the liver” value in the series with C57Bl/6 mice (3 days treatment) is “minimal increases in SREBP1c and FAS expression in the liver”. Also, the “ABCA1 expression in peripheral macrophages” value with C57Bl/6 mice is listed as “sevenfold”. For the same compound, the “ABCA1 expression in the small intestine” value in the series on C57Bl/6 mice is recorded as “eightfold”. Also, the “Effect on NCOR2 binding to LXRβ” value at LXRβ [6] (monoplex CRT, absence of SRC1) is “displacement of NCOR2 from both LXR isoforms”. Moreover, in the series on LXR [12], the “Left-shift in the NCOR2 displacement curve in presence of SRC1” value is given as 100 fold. In the series with Hamsters, the “Plasma TG, LDL-C and VLDL-C” value is given as “dose-dependent increase”.

These data come from PMC13286573, “Exploration of precision coregulator TR-FRET identifies diverse signatures for LXR ligands relevant to discovery of nonlipogenic ABCA1 inducers” (eLife, 2026).
